Test results reported in ChEMBL document CHEMBL3396974, “Synthetic approaches, functionalization and therapeutic potential of quinazoline and quinazolinone skeletons: the advances continue” (Eur J Med Chem, 2015).
≈ marks a conversion by molar mass, not a printed value.

Assays:
Bacillus subtilis = assay: Antibacterial activity against Bacillus subtilis; format: functional
[1] = molecular target: T1, Pro-cathepsin H (Homo sapiens) (UniProt P09668); assay: Inhibition of Cathepsin H (unknown origin) at 1 x 10^-4 M
T1 sequence (whole entry): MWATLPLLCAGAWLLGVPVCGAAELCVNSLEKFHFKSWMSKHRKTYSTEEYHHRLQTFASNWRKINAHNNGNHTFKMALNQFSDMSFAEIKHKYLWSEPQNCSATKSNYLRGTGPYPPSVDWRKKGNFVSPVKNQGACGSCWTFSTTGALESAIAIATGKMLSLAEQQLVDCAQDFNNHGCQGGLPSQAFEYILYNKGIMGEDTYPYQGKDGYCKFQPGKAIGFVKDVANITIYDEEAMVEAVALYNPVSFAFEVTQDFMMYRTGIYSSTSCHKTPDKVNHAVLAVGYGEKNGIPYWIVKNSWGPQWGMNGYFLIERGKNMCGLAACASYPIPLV

Staphylococcus aureus [2] = assay: Antibacterial activity against methicillin-resistant Staphylococcus aureus; format: functional
[3] = Antiproliferative activity against human breast cancer cells; format: functional, cell-based; settings: Cancer cell lines
[4] = Antiproliferative activity against human lung cancer cells; format: functional, cell-based; settings: Cancer cell lines
[5] = Antiproliferative activity against human colon cancer cells; format: functional, cell-based; settings: Cancer cell lines
Mus musculus = species: Mus musculus; assay: Anticonvulsant activity in mouse assessed as protection against maximal electroshock-induced seizures; format: functional
[6] = molecular target: Epidermal growth factor receptor (Homo sapiens, UniProt P00533); assay: Inhibition of EGFR (unknown origin)
Sequence of Epidermal growth factor receptor (P00533 whole entry): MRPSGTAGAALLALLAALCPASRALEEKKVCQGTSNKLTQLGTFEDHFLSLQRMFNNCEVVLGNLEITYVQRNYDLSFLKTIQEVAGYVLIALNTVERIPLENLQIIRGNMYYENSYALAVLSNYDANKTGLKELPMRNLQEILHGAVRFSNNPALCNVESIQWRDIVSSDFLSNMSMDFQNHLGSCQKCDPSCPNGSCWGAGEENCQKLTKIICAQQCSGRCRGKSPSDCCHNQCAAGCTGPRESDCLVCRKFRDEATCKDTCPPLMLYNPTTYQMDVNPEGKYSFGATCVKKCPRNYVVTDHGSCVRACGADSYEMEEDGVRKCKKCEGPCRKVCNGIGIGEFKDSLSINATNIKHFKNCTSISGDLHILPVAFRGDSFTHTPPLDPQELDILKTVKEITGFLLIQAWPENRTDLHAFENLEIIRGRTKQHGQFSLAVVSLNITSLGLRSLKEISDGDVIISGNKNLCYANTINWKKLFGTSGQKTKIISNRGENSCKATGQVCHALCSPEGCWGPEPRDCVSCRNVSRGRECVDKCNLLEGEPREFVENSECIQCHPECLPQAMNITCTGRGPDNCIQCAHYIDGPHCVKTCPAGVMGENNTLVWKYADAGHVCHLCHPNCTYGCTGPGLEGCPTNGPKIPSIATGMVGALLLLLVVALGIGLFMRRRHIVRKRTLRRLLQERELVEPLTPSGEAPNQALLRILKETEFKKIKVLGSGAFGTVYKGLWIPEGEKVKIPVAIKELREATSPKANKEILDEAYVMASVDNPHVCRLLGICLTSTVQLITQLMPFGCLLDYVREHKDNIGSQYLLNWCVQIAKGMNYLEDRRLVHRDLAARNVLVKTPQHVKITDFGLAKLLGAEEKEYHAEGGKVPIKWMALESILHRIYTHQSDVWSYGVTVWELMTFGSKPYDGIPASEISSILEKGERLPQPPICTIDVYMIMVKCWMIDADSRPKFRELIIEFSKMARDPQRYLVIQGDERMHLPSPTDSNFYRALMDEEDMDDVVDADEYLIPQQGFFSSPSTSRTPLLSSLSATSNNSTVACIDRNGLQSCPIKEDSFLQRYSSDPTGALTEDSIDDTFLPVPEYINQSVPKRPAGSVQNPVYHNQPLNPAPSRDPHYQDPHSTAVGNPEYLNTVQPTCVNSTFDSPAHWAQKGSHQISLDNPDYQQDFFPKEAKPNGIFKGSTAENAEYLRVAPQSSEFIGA

[7] = molecular target: Cathepsin B (Homo sapiens) (UniProt P07858); assay: Inhibition of Cathepsin B (unknown origin) at 1 x 10^-4 M
[8] = molecular target: Cathepsin B (Homo sapiens) (UniProt P07858); assay: Inhibition of Cathepsin B (unknown origin) at 0.1 x 10^-4 M
[9] = tested on: Mycobacterium tuberculosis; assay: Antimycobacterial activity against Mycobacterium tuberculosis H37Rv; format: functional
Candida albicans = assay: Antifungal activity against Candida albicans MTCC 183; format: functional
Staphylococcus aureus [10] = assay: Antibacterial activity against Staphylococcus aureus MTCC 96; format: functional
Bacillus cereus [11] = assay: Antibacterial activity against Bacillus cereus MTCC 430; format: functional
Bacillus cereus [12] = assay: Antibacterial activity against Bacillus cereus MTCC 430 assessed as zone of inhibition; format: functional
Staphylococcus aureus [13] = assay: Antibacterial activity against Staphylococcus aureus MTCC 96 assessed as zone of inhibition; format: functional
Klebsiella pneumoniae [14] = assay: Antibacterial activity against Klebsiella pneumoniae MTCC 109; format: functional
Pseudomonas aeruginosa [15] = assay: Antibacterial activity against Pseudomonas aeruginosa MTCC 741; format: functional
Klebsiella pneumoniae [16] = assay: Antibacterial activity against Klebsiella pneumoniae MTCC 109 assessed as zone of inhibition; format: functional
Pseudomonas aeruginosa [17] = assay: Antibacterial activity against Pseudomonas aeruginosa MTCC 741 assessed as zone of inhibition; format: functional
[18] = Photocytotoxicity activity against human HL60 cells measured after UV irradiation; format: functional; settings: HL-60, light or radiation study
Dihydrofolate reductase = molecular target: T2, Dihydrofolate reductase (Homo sapiens, UniProt P00374); assay: Inhibition of DHFR (unknown origin)
T2 sequence (P00374 whole entry): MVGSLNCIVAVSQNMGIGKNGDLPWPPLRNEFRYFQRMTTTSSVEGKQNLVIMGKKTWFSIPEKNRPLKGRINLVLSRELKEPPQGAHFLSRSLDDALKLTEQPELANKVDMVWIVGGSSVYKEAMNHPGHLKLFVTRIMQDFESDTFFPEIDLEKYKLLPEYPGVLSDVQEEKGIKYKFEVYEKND

[19] = Cytotoxicity against human CNE2 cells by MTT assay; format: functional, cell-based; settings: CNE-2
[20] = Cytotoxicity against human PC3 cells by MTT assay; format: functional, cell-based; settings: PC-3
SMMC-7721 = assay: Cytotoxicity against human SMMC7721 cells by MTT assay; format: functional, cell-based
HUVEC [21] = assay: Inhibition of cell adhesion in HUVEC at 15 uM after 3 hrs at 37 degC; format: functional; settings: Homo sapiens
HUVEC [22] = assay: Inhibition of cell adhesion in HUVEC at 30 uM after 3 hrs at 37 degC; format: functional; settings: Homo sapiens
[23] = Cytotoxicity against human PC3 cells assessed as inhibition of cell growth; format: functional, cell-based; settings: PC-3
Staphylococcus aureus [24] = assay: Antibacterial activity against Staphylococcus aureus assessed as zone of inhibition; format: functional
Escherichia coli [25] = assay: Antibacterial activity against Escherichia coli assessed as zone of inhibition; format: functional
Escherichia coli [26] = assay: Antibacterial activity against Escherichia coli MTCC 739; format: functional
Saccharomyces cerevisiae = assay: Antifungal activity against Saccharomyces cerevisiae; format: functional
[27] = molecular target: T1, Pro-cathepsin H (Homo sapiens); assay: Inhibition of Cathepsin H (unknown origin) at 0.25 x 10^-4 M
[28] = molecular target: Cathepsin B (Homo sapiens) (UniProt P07858); assay: Inhibition of Cathepsin B (unknown origin) at 0.50 x 10^-4 M

CN[C@@H]1[C@H](O[C@H]2[C@H](O[C@H]3[C@H](O)[C@@H](O)[C@H](N=C(N)N)[C@@H](O)[C@@H]3N=C(N)N)O[C@@H](C)[C@]2(O)C=O)O[C@@H](CO)[C@H](O)[C@H]1O [STREPTOMYCIN]
MIC (Bacillus subtilis): 32 µg/mL (≈ 55 µM)

CN(C)c1ccc(/C=C2\CCCC3=C2NC(=O)NC3c2ccc(N(C)C)cc2)cc1 (centres undefined)
inhibition [1]: 100%

Cn1c(=O)n(CCOC(=O)CNC(=O)/C=C/c2ccccc2)c(=O)c2ccccc21
MIC (Bacillus subtilis): 4 µg/mL (≈ 9.82 µM) | MIC (Staphylococcus aureus [2]): 4 µg/mL (≈ 9.82 µM)

O=c1c2ccccc2ncn1/N=C/c1ccc(O)c(O)c1O
IC50 [3]: 140 nM | IC50 [4]: 79 nM | IC50 [5]: 320 nM

Cn1c(=O)n(CCOC(=O)CNC(=O)c2ccc([N+](=O)[O-])cc2)c(=O)c2ccccc21
MIC (Staphylococcus aureus [2]): 4 µg/mL (≈ 9.38 µM)

COc1cc2nc(/C=C/c3ccccc3Cl)n(-c3ccc(Br)cc3)c(=O)c2cc1OC
ED50 (Mus musculus): 41.3 µmol/kg

COc1ccc(C(=O)NCC(=O)OCCn2c(=O)c3ccccc3n(C)c2=O)cc1
MIC (Bacillus subtilis): 4 µg/mL (≈ 9.72 µM)

Clc1cc(Nc2ncnc3ccc(NC4=NC[C@H](COc5ccccc5)O4)cc23)ccc1OCc1nccs1
IC50 [6]: 1210 nM

O=C1NC2=C(CCC/C2=C\C=C\c2ccccc2)C(/C=C/c2ccccc2)N1 (centres undefined)
inhibition [7]: 100% | inhibition [8]: 50%

Cc1cccc(Oc2nc(-c3ccc(NC(=S)Nc4ccc(Br)cc4)cc3)nc3ccccc23)c1
inhibition (INH) [9]: 99% | MIC ([9]; Mycobacterium tuberculosis, H37Rv): 12.5 µg/mL (≈ 23.1 µM)

Cc1cccc(Oc2nc(-c3ccc(NC(=O)Nc4ccc(Br)cc4)cc3)nc3ccccc23)c1
MIC (Candida albicans): 12.5 µg/mL (≈ 23.8 µM) | MIC (Staphylococcus aureus [10]): 6.25 µg/mL (≈ 11.9 µM) | MIC (Bacillus cereus [11]): 12.5 µg/mL (≈ 23.8 µM) | inhibition zone (IZ) (Bacillus cereus [12]): 26 mm | inhibition zone (IZ) (Staphylococcus aureus [13]): 29 mm | MIC (Klebsiella pneumoniae [14]): 12.5 µg/mL (≈ 23.8 µM) | MIC (Pseudomonas aeruginosa [15]): 25 µg/mL (≈ 47.6 µM) | inhibition zone (IZ) (Klebsiella pneumoniae [16]): 27 mm | inhibition zone (IZ) (Pseudomonas aeruginosa [17]): 25 mm

CC1(C)CC(=O)C2=C(C1)N=C1Sc3ccccc3N1C2c1ccccc1C(F)(F)F (centres undefined)
GI50 [18]: 900 nM

Cn1c(=O)n(CCOC(=O)CNC(=O)c2ccco2)c(=O)c2ccccc21
MIC (Bacillus subtilis): 4 µg/mL (≈ 10.8 µM)

COc1cc(/C=C2\CCCc3c2nc(N)nc3-c2cc(OC)c(OC)c(OC)c2)cc(OC)c1OC
IC50 (Dihydrofolate reductase): 14000 nM

CN(C)CCCNc1nc(-c2ccccc2NC(=O)CCN2CCN(C)CC2)nc2ccccc12
IC50 [19]: 9300 nM | IC50 [20]: 9800 nM | IC50 (SMMC-7721): 10900 nM | inhibition at 15 µM (HUVEC [21]): 65.8% | inhibition at 30 µM (HUVEC [22]): 71.2%

C[Se](=O)O [METHYLSELENINIC ACID]
IC50 [23]: < 8400 nM

Oc1ccc(/C=N/NC2=NC3=C(CCCC3)C(c3ccccc3)N2)cc1 (centres undefined)
inhibition zone (IZ) (Staphylococcus aureus [24]): 18 mm | inhibition zone (IZ) (Escherichia coli [25]): 17 mm

COc1cc2nc(/C=C/c3ccccc3Cl)n(-c3ccncc3)c(=O)c2cc1OC
ED50 (Mus musculus): 66.4 µmol/kg

COc1cc2nc(/C=C/c3ccccc3Cl)n(-c3ccc([N+](=O)[O-])cc3)c(=O)c2cc1OC
ED50 (Mus musculus): 41.3 µmol/kg

O=c1c2ccccc2nc(-c2ccc(Cl)cc2)n1Cc1ccccc1
MIC (Candida albicans): 26.1 µg/mL (≈ 75.3 µM) | MIC (Bacillus subtilis): 24.3 µg/mL (≈ 70.1 µM) | MIC (Staphylococcus aureus [10]): 25.6 µg/mL (≈ 73.8 µM) | MIC (Pseudomonas aeruginosa [15]): 30.1 µg/mL (≈ 86.8 µM) | MIC (Escherichia coli [26]): 25.1 µg/mL (≈ 72.4 µM) | MIC (Saccharomyces cerevisiae): 18.3 µg/mL (≈ 52.8 µM)

Cn1c(=O)n(CCOC(=O)CNC(=O)c2ccc(F)cc2)c(=O)c2ccccc21
MIC (Staphylococcus aureus [2]): 4 µg/mL (≈ 10 µM)

COc1cc2nc(/C=C/c3ccccc3Cl)n(-c3ccccc3[N+](=O)[O-])c(=O)c2cc1OC
ED50 (Mus musculus): 98.2 µmol/kg

CN(C)c1ccc(/C=C2\CCCC3=C2NC(=S)NC3c2ccc(N(C)C)cc2)cc1 (centres undefined)
inhibition [27]: 100%

S=C1NC2=C(CCC/C2=C\C=C\c2ccccc2)C(/C=C/c2ccccc2)N1 (centres undefined)
inhibition [28]: 100%

Clc1cc(Nc2ncnc3ccc(NC4=NC[C@@H](COc5ccccc5)O4)cc23)ccc1OCc1nccs1
IC50 [6]: 950 nM

CC1(C)CC(=O)C2=C(C1)N=C1Sc3ccccc3N1C2c1ccc(F)cc1 (centres undefined)
GI50 [18]: 900 nM

CC1(C)CC(=O)C2=C(C1)N=C1Sc3ccccc3N1C2c1ccc(C(F)(F)F)cc1 (centres undefined)
GI50 [18]: 900 nM

COc1ccc(/C=C2\CCCc3c2nc(N)nc3-c2ccc(OC)c(OC)c2)cc1OC
IC50 (Dihydrofolate reductase): 14000 nM

CC[C@@]1(O)C(=O)OCc2c1cc1n(c2=O)Cc2cc3c(CN(C)C)c(O)ccc3nc2-1 [TOPOTECAN]
IC50 [23]: < 4000 nM

COc1cc(/C=C2\CCCc3c2nc(C)nc3-c2cc(OC)c(OC)c(OC)c2)cc(OC)c1OC
IC50 (Dihydrofolate reductase): 500 nM

COc1ccc(/C=C2\CCCc3c2nc(C)nc3-c2ccc(OC)c(OC)c2)cc1OC
IC50 (Dihydrofolate reductase): 100 nM
